Experimental data as given in US10258561B2, “Cosmetic composition containing a brown alga extract, a yeast extract and ascorbic acid” (LVMH RECHERCHE, priority 2013, dated 2019).

Test system: synthesis of procollagen I by normal human fibroblasts (NHF)
Assay: Synthesis of type I procollagen by aged normal human fibroblasts, ELISA on culture supernatants
Type: cell-based
Conditions: active agents alone
Text: The influence of the extracts constituting the combination of the invention on the synthesis of procollagen I by normal human fibroblasts (NHF) is studied. Procollagen is a precursor form of collagen secreted in the extracellular medium where the ends are cut in order to result in the collagen subunit. The combining of these collagen molecules will subsequently create the collagen fibers. 1. Cell Model • Type: Normal human fibroblasts (NHF), aged by passages in culture (20th passage). • Culturing conditions: 37° C., 5% CO2. • Culture medium: (Invitrogen 21090-22) supplemented with L-glutamine 2 mM, penicillin 50 UI/ml-streptomycin 50 μg/ml, 10% FCS (Biowest S1810). • Test medium: […]. The active agents are dissolved in the culture medium at the concentration specified in the following table. The synthesis of type I procollagen by these cells was evaluated by the ELISA technique from the culture supernatants of aged fibroblasts. The NHFs are cultured in a 96-well microplate at the rate of 7500 cells/well for 24 hours. At 80% confluence, the medium is replaced with the test medium containing the active agents to be tested or the references. The cells are incubated for 72 hours. The culture supernatants are subsequently recovered and stored at −20° C. while awaiting assaying. […] The amounts of procollagen I are expressed as ng/mg of protein. […]

Compound: O=C1O[C@H]([C@@H](O)CO)C(O)=C1O [Vitamin C, Ascorbic acid]
- Procoll. I (ng/mg of prot) (aged NHF (20th passage), 72 hours, untreated control 1439 ± 161): 2431 ± 55 ng/mg of prot
- Variation (vs untreated control): +67%
